{"source": "paper PMC1781467", "about": "“In silico panning for a non-competitive peptide inhibitor” (BMC Bioinformatics, 2007)", "key": {"PQQGDH [1]": {"biological_target": "T1, PQQGDH (Acinetobacter calcoaceticus, UniProt P13650)", "T1 sequence (P13650 25-478)": "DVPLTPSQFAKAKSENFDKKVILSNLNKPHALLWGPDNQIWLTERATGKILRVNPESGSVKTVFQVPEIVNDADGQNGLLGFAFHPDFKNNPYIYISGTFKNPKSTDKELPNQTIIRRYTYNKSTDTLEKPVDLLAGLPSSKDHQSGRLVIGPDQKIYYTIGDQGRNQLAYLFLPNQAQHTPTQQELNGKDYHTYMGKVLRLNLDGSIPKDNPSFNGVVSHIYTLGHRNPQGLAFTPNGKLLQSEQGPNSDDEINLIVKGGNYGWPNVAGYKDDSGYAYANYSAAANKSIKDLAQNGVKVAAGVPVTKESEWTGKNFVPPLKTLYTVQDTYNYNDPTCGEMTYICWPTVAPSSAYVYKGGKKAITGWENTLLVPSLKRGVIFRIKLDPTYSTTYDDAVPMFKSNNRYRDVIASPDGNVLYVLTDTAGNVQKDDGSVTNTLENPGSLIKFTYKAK", "assay": "PQQGDH activity for glucose in the presence of synthetic peptides (PMS/DCIP assay)", "assay_type": "biochemical", "conditions": "derived from the Dixon plot; 0.57 nM apo-PQQGDH, glucose substrate, pH 7.0; read-out: Ki (inhibition constant)", "protocol": "The three peptides with the lowest docking energies, GEKD, GERD, and SERG, and the control peptide DDDD were synthesized by Qiagen (Chatsworth, CA, USA). […] In general, purified PQQGDH is a mixture of an apo- and holo-type enzyme. Therefore, we dialyzed the enzyme against 100 mM EDTA and 10 mM MOPS-NaOH buffer for 2 days, to remove the Ca^2+ ions. Each synthesized peptide was prepared at concentrations of 0.2, 1, 2, 10, and 20 μM. The prepared peptides and 0.57 nM of apo-PQQGDH were incubated in 10 mM MOPS-NaOH buffer (pH 7.0) for 10 min at room temperature. PQQGDH activity was measured using 0.6 mM PMS and 0.06 mM DCIP. Decreased in the absorbance of DCIP at 600 nm at various concentrations of glucose were monitored, and the kinetic parameters of PQQGDH were as described previously. The kinetic parameters and Ki values were calculated using the KaleidaGraph software."}, "PQQGDH [2]": {"biological_target": "T1, PQQGDH", "design": "method as in PMID 12882541", "conditions": "peptide from phage display peptide library; cited from earlier work"}}, "note": "pKi: −log10 of the molar value. Ends that are not written are not given here. Peptide text beside a SMILES is read from it."}
{"molecule": "N[C@@H](CC(=O)O)C(=O)N[C@@H](CC(=O)O)C(=O)N[C@@H](CC(=O)O)C(=O)N[C@@H](CC(=O)O)C(=O)O", "note": "[DDDD] (H-DDDD-OH)", "values": [{"measurement": "pKi", "setting": "PQQGDH [1]", "value": "< 4.00"}]}
{"molecule": "NCCCC[C@H](NC(=O)[C@H](CCC(=O)O)NC(=O)CN)C(=O)N[C@@H](CC(=O)O)C(=O)O", "note": "[GEKD] (H-GEKD-OH)", "values": [{"measurement": "pKi", "setting": "PQQGDH [1]", "value": "< 4.70"}]}
{"molecule": "N=C(N)NCCC[C@H](NC(=O)[C@H](CCC(=O)O)NC(=O)CN)C(=O)N[C@@H](CC(=O)O)C(=O)O", "note": "[GERD] (H-GERD-OH)", "values": [{"measurement": "pKi", "setting": "PQQGDH [1]", "value": "< 4.70"}]}
{"molecule": "N=C(N)NCCC[C@H](NC(=O)[C@H](CCC(=O)O)NC(=O)[C@@H](N)CO)C(=O)NCC(=O)O", "note": "[SERG] (H-SERG-OH)", "values": [{"measurement": "pKi", "setting": "PQQGDH [1]", "value": 4.70}]}
{"molecule": "TTATEYS [seven-amino-acid peptide previously identified from a phage display peptide library]", "values": [{"measurement": "Effect on substrate specificity of PQQGDH", "setting": "PQQGDH [2]", "value": "narrowed the substrate specificity of PQQGDH without significant loss of enzyme activity"}]}
